According to patent US20030232860A1, “Medicine comprising dicyanopyridine derivative” (priority 2000, published 2003):

| SMILES | melting point |
| --- | --- |
| CSc1nc(N)c(C#N)c(-c2ccsc2)c1C#N [Example 7, 2-amino-6-methylsulfanyl-4-(3-thienyl)pyridine-3,5-dicarbonitrile] | 241 to 243 °C |
| N#Cc1c(N)nc(Cl)c(C#N)c1-c1ccccc1 [Example 9, 2-amino-6-chloro-4-phenylpyridine-3,5-dicarbonitrile] | > 300 °C |
| N#Cc1c(N)nc(OCCO)c(C#N)c1-c1ccccc1 [Example 13, 2-amino-6-(2-hydroxyethoxy)-4-phenylpyridine-3,5-dicarbonitrile] | 212 to 214 °C |
| CC(C)Oc1nc(N)c(C#N)c(-c2ccccc2F)c1C#N [Example 18, 2-amino-4-(2-fluorophenyl)-6-isopropoxypyridine-3,5-dicarbonitrile] | 161 to 162 °C |
| COc1nc(NC(C)=O)c(C#N)c(-c2cccs2)c1C#N [Example 19, N-(3,5-dicyano-6-methoxy-4-thiophen-2-ylpyridin-2-yl)acetamide] | 230 to 233 °C |
| N#Cc1c(N)nc(O)c(C#N)c1-c1ccc(N)cc1 [Example 21, 2-amino-(4-aminophenyl)-6-hydroxypyridine-3,5-dicarbonitrile] | > 300 °C |
| CSc1nc(O)c(C#N)c(-c2cccs2)c1C#N [Example 23, 2-hydroxy-6-methylsulfanyl-4-thiophen-2-ylpyridine-3,5-dicarbonitrile] | 245 °C (dec.) |
| CSc1nc(Br)c(C#N)c(-c2cccs2)c1C#N [Example 24, 2-bromo-6-methylsulfanyl-4-thiophen-2-ylpyridine-3,5-dicarbonitrile] | 169 to 171 °C |
| COc1nc(O)c(C#N)c(-c2ccccc2)c1C#N [Example 25, 2-hydroxy-6-methoxy-4-phenylpyridine-3,5-dicarbonitrile] | 255 to 257 °C (dec.) |
| COc1ncc(C#N)c(-c2ccccc2)c1C#N [Example 26, 2-methoxy-4-phenylylpyridine-3,5-dicarbonitrile] | 148 to 149 °C |
| CSc1nc(N)c(C#N)c(-c2ccc(C(=O)O)cc2)c1C#N [Example 29, 4-(2-amino-3,5-dicyano-6-methylsulfanylpyridin-4-yl)benzoic acid] | 288 to 290 °C |
| N#Cc1c(N)nc(Oc2cccc(C(=O)O)c2)c(C#N)c1-c1ccccc1 [Example 31, 3-[(6-amino-3,5-dicyano-4-phenylpyridin-2-yl)oxy]benzoic acid] | 284 to 286 °C |
| COc1nc(OCCO)c(C#N)c(-c2ccccc2)c1C#N [Example 33, 2-(2-hydroxyethoxy)-6-methoxy-4-phenylpyridine-3,5-dicarbonitrile] | 170 to 172 °C |
| COc1nc(N)c(C#N)c(-c2cccc(CO)c2)c1C#N [Example 34, 2-amino-4-[3-(hydroxymethyl)phenyl]-6-methoxypyridine-3,5-dicarbonitrile] | 218.5 to 219.5 °C |
| COc1nc(N)c(C#N)c(-c2ccc(NS(C)(=O)=O)cc2)c1C#N [Example 38, N-[4-(2-amino-3,5-dicyano-6-methoxypyridin-4-yl)phenyl]methanesulfonamide] | 265 to 266 °C |
| N#Cc1c(N)nc(N)c(C#N)c1-c1ccccc1 [Example 41, 2,6-diamino-4-phenylpyridine-3,5-dicarbonitrile] | > 300 °C |
| COc1nc(F)c(C#N)c(-c2ccccc2)c1C#N [Example 43, 2-fluoro-6-methoxy-4-phenylpyridine-3,5-dicarbonitrile] | 156 to 158 °C |
| CS(=O)(=O)c1nc(N)c(C#N)c(-c2cccs2)c1C#N [Example 44, 2-amino-6-methanesulfonyl-4-thiophen-2-ylpyridine-3,5-dicarbonitrile] | 233 to 235 °C |
| CSc1nc(NS(C)(=O)=O)c(C#N)c(-c2ccsc2)c1C#N [Example 45, N-(3,5-dicyano-6-methylsulfanyl-4-thiophen-3-ylpyridin-2-yl)methanesulfonamide] | > 250 °C |

| SMILES | melting point |
| --- | --- |
| COc1nc(N)c(C#N)c(-c2cccc(C#N)c2)c1C#N [Example 49, 2-amino-4-(3-cyanophenyl)-6-methoxypyridine-3,5-dicarbonitrile] | 298 to 299 °C |
| COc1nc(N(C(C)=O)C(C)=O)c(C#N)c(-c2ccccc2F)c1C#N [Example 59, 2-diacetylamino-4-(2-fluorophenyl)-6-methoxypyridine-3,5-dicarbonitrile] | 137 to 138 °C |
| COCC(=O)Nc1nc(OC)c(C#N)c(-c2ccccc2F)c1C#N [Example 60, N-[3,5-dicyano-4-(2-fluorophenyl)-6-methoxypyridin-2-yl]-2-methoxyacetamide] | 168 to 169 °C |
| COCC(=O)Nc1nc(OC)c(C#N)c(-c2c(F)cccc2F)c1C#N [Example 62, N-[3,5-dicyano-4-(2,6-difluorophenyl)-6-methoxypyridin-2-yl]-2-methoxyacetamide] | 181 to 182 °C |
| COc1nc(NC(C)=O)c(C#N)c(-c2c(F)cccc2F)c1C#N [Example 63, N-[3,5-dicyano-4-(2,6-difluorophenyl)-6-methoxypyridin-2-yl]acetamide] | 200 to 201 °C |
| COc1nc(N)c(C#N)c(-c2cc[nH]c2)c1C#N [Example 66, 2-amino-6-methoxy-4-(1H-pyrrol-3-yl)pyridine-3,5-dicarbonitrile] | 235 to 237 °C |
| COc1nc(NC(=O)C(F)(F)F)c(C#N)c(-c2ccccc2F)c1C#N [Example 69, N-[3,5-dicyano-4-(2-fluorophenyl)-6-methoxypyridin-2-yl]-2,2,2-trifluoroacetamide] | 142 to 145 °C |
| COc1nc(NC(=O)C2CC2)c(C#N)c(-c2ccccc2F)c1C#N [Example 70, N-[3,5-dicyano-4-(2-fluorophenyl)-6-methoxypyridin-2-yl] cyclopropanecarboxamide] | 203 to 204 °C |
| COc1nc(NC(=O)N(C)C)c(C#N)c(-c2ccccc2F)c1C#N [Example 71, 3-[3,5-dicyano-4-(2-fluorophenyl)-6-methoxypyridin-2-yl]-1,1-dimethylurea] | 82 to 86 °C |
| CCC(=O)N(C(=O)CC)c1nc(OC)c(C#N)c(-c2ccccc2F)c1C#N [Example 73, 2-dipropanoylamino-4-(2-fluorophenyl)-6-methoxypyridine-3,5-dicarbonitrile] | 160 to 161 °C |
| CSc1nc(N)c(C#N)c(C)c1C#N [Example 75] | 246 to 247 °C |
| CSc1nc(N)c(C#N)c(-c2ccccc2)c1C#N [Example 76] | 297 °C |
| CSc1nc(N)c(C#N)c(-c2ccco2)c1C#N [Example 84] | 229 to 230 °C |
| COc1nc(N)c(C#N)c(-c2cc(F)ccc2F)c1C#N [Example 126, 2-amino-4-(2,5-difluorophenyl)-6-methoxypyridine-3,5-dicarbonitrile] | 201 to 202 °C |
| CCc1c(C#N)c(N)nc(OC)c1C#N [Example 149] | 160 to 161 °C |
| COc1nc(N)c(C#N)c(C2CCOC2)c1C#N (centres unmarked) [Example 163] | 205 to 206 °C |
| COc1nc(N)c(C#N)c(-c2ccc[nH]2)c1C#N [Example 169] | 198 to 199 °C |
| COc1nc(N)c(C#N)c(-c2c[nH]c3ccccc23)c1C#N [Example 170] | > 300 °C |
| N#Cc1c(N)nc(Br)c(C#N)c1-c1ccccc1 [Example 178] | > 300 °C |

| SMILES | melting point |
| --- | --- |
| CCOc1nc(N)c(C#N)c(-c2ccccc2)c1C#N [Example 179] | 233 to 234 °C |
| N#Cc1c(N)nc(Oc2ccccc2)c(C#N)c1-c1ccccc1 [Example 194] | 202 °C |
| N#Cc1c(N)nc(-n2ccnc2)c(C#N)c1-c1ccccc1 [Example 211] | 256 to 258 °C |
| N#Cc1c(N)nc(SCc2ccccc2)c(C#N)c1-c1ccccc1 [Example 217] | 212 to 213 °C |
| COc1nc(OC)c(C#N)c(-c2ccccc2)c1C#N [Example 358] | 157 to 159 °C |
| CNc1nc(OC)c(C#N)c(-c2ccccc2)c1C#N [Example 360] | 216 to 218 °C |
| COc1nc(N(C)C)c(C#N)c(-c2ccccc2)c1C#N [Example 361] | 179 to 180 °C |
| COc1nc(NCCO)c(C#N)c(-c2ccccc2)c1C#N [Example 362, 2-[(2-hydroxyethyl)amino]-6-methoxy-4-phenylpyridine-3,5-dicarbonitrile] | 153 to 155 °C |
| COC(=O)CNc1nc(OC)c(C#N)c(-c2ccccc2)c1C#N [Example 363, methyl [(3,5-dicyano-6-methoxy-4-phenylpyridin-2-yl)amino]acetate] | 140 to 141 °C |
| COc1nc(SC)c(C#N)c(-c2ccccc2)c1C#N [Example 371] | 168 to 170 °C |
| N#Cc1c(N)nc(Cl)c(C#N)c1-c1cccs1 [Example 372] | 301 °C |
| N#Cc1c(N)nc(Br)c(C#N)c1-c1cccs1 [Example 373] | 312 °C |
| N#Cc1c(N)nc(OCc2ccccc2)c(C#N)c1-c1cccs1 [Example 378] | 186 to 187 °C |
| N#Cc1c(N)nc(SCc2ccccc2)c(C#N)c1-c1cccs1 [Example 386] | 208 to 209 °C |
| COc1nc(NC(=O)COC(C)=O)c(C#N)c(-c2ccccc2F)c1C#N [Example 397, [3,5-dicyano-4-(2-fluorophenyl)-6-methoxypyridin-2-ylcarbamoyl]methyl acetate] | 151 to 153 °C |
| COc1nc(NC(=O)COc2ccccc2)c(C#N)c(-c2ccccc2F)c1C#N [Example 398, N-[3,5-dicyano-4-(2-fluorophenyl)-6-methoxypyridin-2-yl]-2-phenoxyacetamide] | 205 to 206 °C |
| COc1nc(NC(=O)COCc2ccccc2)c(C#N)c(-c2ccccc2F)c1C#N [Example 399, 2-benzyloxy-N-[3,5-dicyano-4-(2-fluorophenyl)-6-methoxypyridin-2-yl]acetamide] | 164 to 166 °C |
| CCC(=O)Nc1nc(OC)c(C#N)c(-c2ccccc2F)c1C#N [Example 401, N-[3,5-dicyano-4-(2-fluorophenyl)-6-methoxypyridin-2-yl]propionamide] | 168 to 169 °C |
